A short description of series [1]: Viscosity of product from neutralization of Jeffamine D-230 with acids. The format is physicochemical. The note with it: for Viscosity (centipoises) at pH 9.5: Jeffamine D-230 neutralized with the acid to pH 9.5; for Viscosity (centipoises) at pH 10.5: Jeffamine D-230 neutralized with the acid to pH 10.5. An excerpt: Synthesis of the salt: Synthesis of the salts from the free amine compounds is simple and should be well known and within the skill of a person of ordinary skill in the art. In one method the salt is formed in situ within a fully formulated mud by the addition of the acid directly to the mud. Alternatively the amine compound may be neutralized first with acid and then the salt added to the mud. When conducting the neutralization reaction between the amine compound and the acid compound either concentrated or diluted acid may be used. When concentrated acid is utilized, typically a slurry of the salt is formed. When the acid is diluted in water, an aqueous solution containing the amine salt is formed.

Series [2] can be described thus: Hot-Rolling Dispersion in fresh water, field cuttings. The note with it: 350 ml freshwater with 10.5 g shale inhibitor, hot rolled 16 hours at 150° F. How it is done: (§1) Synthesis of the amine salt was carried out as previously disclosed above. Fresh water was utilized as the base fluid in this example.
(§2) A hot-rolling dispersion test was conducted using samples of Oxford shale, Foss Eikeland shale and actual shale drilling cutting recovered from a well in the field. […] The resulting mixture was hot rolled for 16 hours at 150° F. After rolling, the remaining shale cuttings were screened from the base fluid using a US 20 mesh screen and washed clean of base fluid with 10% potassium chloride aqueous solution. After drying the samples, they were weighed and the percentage of recovered shale was calculated.

Series [3] in a line: Hot-Rolling Dispersion in fresh water, Oxford shale. The note with it: 350 ml freshwater with 10.5 g shale inhibitor, hot rolled 16 hours at 150° F. The method, then: as §1, §2
The nature of series [4]: Hot-Rolling Dispersion in fresh water, Foss Eikeland shale. The note with it: 350 ml freshwater with 10.5 g shale inhibitor, hot rolled 16 hours at 150° F. How it is done: as §1, §2
Series [5] can be described thus: Bentonite inhibition by daily addition of bentonite (Example 7). The note with it: for 300 rpm Rheologies / 600 rpm Rheologies / 3 rpm Rheologies / 10 Min Gels / Plastic Viscosity / Yield Point: 10 ppb inhibitor; for 300 rpm Rheologies / 600 rpm Rheologies: Heat Aged (150° F.); for 3 rpm Rheologies / 10 Min Gels / Plastic Viscosity / Yield Point: Heat Aged (150°). How it is done: This test procedure uses pint jars that are filled with one barrel equivalent of tap water and 10 ppb of a shale inhibitor. Tap water was used as a control sample. All samples were adjusted to at least a pH of 9 and treated with a 10 ppb portion of M-I GEL (bentonite) at a medium shear rate. After stirring for 30 minutes, the rheologies were measured and then the samples were heat aged overnight at 150° F. After the samples were cooled their rheologies and pHs were recorded. All samples were then adjusted to at least a pH 9 before treating them again with bentonite as previously described. This procedure was carried out for each sample until all were too thick to measure.

Series [6] in a line: Bentonite Hydration Study, 50 ppb bentonite (Example 6). How it is done: In this procedure a pint jar was filled with one barrel equivalent of tap water and test sample, adjusted the pH to at least 9 and treated with a 50 ppb portion M-I GEL (bentonite) at a medium shear rate. After stirring for 30 minutes, the rheologies were measured and then the samples were heat aged overnight at 150° F. After the samples were cooled their rheologies and pHs were recorded. The following data is representative of how the rheologies are affected by the addition of the 50 ppb of bentonite in tap water treated with the experimental inhibitors.

With `O=[N+]([O-])O` [Nitric acid], the “Viscosity (centipoises) at pH 9.5” value in series [1] was 610 cps. Besides, in series [1], the “Viscosity (centipoises) at pH 10.5” value is 120 cps. Moreover, the “% recovered” value in series [2] is reported as 45.7%; in series [3], 87.6%; in series [4], 69.1%.
Consider `COCCOC(C)COC(C)COC(C)COC(C)COC(C)COC(C)COC(C)COC(C)COCC(C)N` (stereo not shown) [Jeffamine M-600], for which, in series [5] (Bentonite 30 lb/bbl), the “300 rpm Rheologies” value is on record as 9, the “600 rpm Rheologies” value is 18, the “3 rpm Rheologies” value was 0 and the “10 Min Gels” value is 0 lbs/100 ft^2. Moreover, in series [5] (Bentonite 30 lb/bbl), the “Plastic Viscosity” value was found to be 9 CPS and the “Yield Point” value is 1 lbs/100 ft^2. Besides, in series [5] (Bentonite 40 lb/bbl), the “300 rpm Rheologies” value was 18, the “600 rpm Rheologies” value worked out at 35, the “3 rpm Rheologies” value is given as 0 and the “10 Min Gels” value stood at 0 lbs/100 ft^2. Besides, in series [5] (Bentonite 40 lb/bbl), the “Plastic Viscosity” value came out at 16 CPS and the “Yield Point” value was determined as 1 lbs/100 ft^2. In series [5] (Bentonite 50 lb/bbl), the “300 rpm Rheologies” value was 41, the “600 rpm Rheologies” value was 74, the “3 rpm Rheologies” value came to 0 and the “10 Min Gels” value amounted to 0 lbs/100 ft^2. In series [5] (Bentonite 50 lb/bbl), the “Plastic Viscosity” value is 33 CPS and the “Yield Point” value is recorded as 8 lbs/100 ft^2. In addition, in series [5] (Bentonite 60 lb/bbl), the “300 rpm Rheologies” value was determined as 71, the “600 rpm Rheologies” value came to 146, the “3 rpm Rheologies” value came to 0 and the “10 Min Gels” value was found to be 0 lbs/100 ft^2. Also, in series [5] (Bentonite 60 lb/bbl), the “Plastic Viscosity” value worked out at 75 CPS and the “Yield Point” value stood at 4 lbs/100 ft^2. Moreover, in series [5] (Bentonite 70 lb/bbl), the “300 rpm Rheologies” value came out at 121, the “600 rpm Rheologies” value stood at 259, the “3 rpm Rheologies” value was found to be 0 and the “10 Min Gels” value is 3 lbs/100 ft^2. Further, in series [5] (Bentonite 70 lb/bbl), the “Plastic Viscosity” value is reported as 138 CPS and the “Yield Point” value is 17 lbs/100 ft^2. Moreover, the “shale hydration inhibition, judgement” value in series [5] (daily addition of bentonite) is reported as “performs as a shale hydration inhibitor”. Moreover, the “shale hydration inhibition, judgement” value in series [6] is recorded as “performed well as shale hydration inhibitors”. For the same compound, in series [6] (Heat Aged Rheology (150° F.)), the “Gels 10 sec.” value amounted to 1 lbs/100 ft^2, the “Gels 10 min.” value is 1 lbs/100 ft^2, the PV is reported as 16 CPS and the “Rheology 3 RPM” value was 1. In addition, in series [6] (Heat Aged Rheology (150° F.)), the “Rheology 6 RPM” value came to 1, the “Rheology 100 RPM” value is recorded as 10, the “Rheology 200 RPM” value was found to be 17 and the “Rheology 300 RPM” value was determined as 24. Further, in series [6] (Heat Aged Rheology (150° F.)), the “Rheology 600 RPM” value was found to be 40, the YP amounted to 8 lbs/100 ft^2 and the pH is reported as 11.1. Also, in series [6] (Initial Rheology), the “Gels 10 sec.” value worked out at 11 lbs/100 ft^2, the “Gels 10 min.” value was 25 lbs/100 ft^2, the PV is recorded as 19 CPS and the “Rheology 3 RPM” value came to 4. In series [6] (Initial Rheology), the “Rheology 6 RPM” value came to 5, the “Rheology 100 RPM” value turned out to be 17, the “Rheology 200 RPM” value is given as 25 and the “Rheology 300 RPM” value is 33. In series [6] (Initial Rheology), the “Rheology 600 RPM” value amounted to 52, the YP came out at 14 lbs/100 ft^2 and the pH came out at 11.1.
Take Citric acid: the “Viscosity (centipoises) at pH 9.5” value in series [1] came out at 2000 cps. The “Viscosity (centipoises) at pH 10.5” value in series [1] was 180 cps. The “% recovered” value in series [3] came to 87.0%; in series [4], 78.0%.
As to `O=P(O)(O)O` [Phosphoric acid], in series [1], the “Viscosity (centipoises) at pH 9.5” value is “slurry”. Moreover, the “Viscosity (centipoises) at pH 10.5” value in series [1] is listed as “slurry”. Also, the “% recovered” value is given as 42.6% in series [2], 87.8% in series [3] and 69.1% in series [4].
Regarding `CC(=O)O` [Acetic acid], the “Viscosity (centipoises) at pH 9.5” value in series [1] came to 1425 cps. The “Viscosity (centipoises) at pH 10.5” value in series [1] was found to be 33 cps. The figures for the “% recovered” value in series [2], in series [3] and in series [4] were 47.6%, 88.0% and 72.4%, respectively.
